Columns and labels:
Assay type in all cases: biochemical
Tyro3 = Tyro3 (Homo sapiens (Human), UniProt Q06418); experiment: TAM Enzymatic Assay (HTRF), Tyro3; settings: Tyro3, 60 min, room temperature
In short: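 HTRF kinase assay in 50 mM HEPES pH 7.5, 10 mM MgCl2, 1 mM EGTA, 0.01% NP-40, 2 mM DTT; compound in DMSO pre-dispensed, enzyme added, reaction started with substrate, 60 min at room temperature in the dark.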

phosphor-Axl = phosphor-Axl (Homo sapiens (Human), UniProt P30530); experiment: TAM Enzymatic Assay (HTRF), Axl; settings: recombinant autophosphorylated Axl, 60 min, room temperature
c-Mer = c-Mer (Homo sapiens (Human), UniProt Q12866); experiment: TAM Enzymatic Assay (HTRF), Mer; settings: 60 min, room temperature
Method: The kinase assay buffer contained 50 mM HEPES, pH7.5, 10 mM MgCl2, 1 mM EGTA, 0.01% NP-40 and 2 mM DTT. 0.1 ul test compounds dissolved in DMSO were transferred from compound plates to white 384-well assay plates (Greiner […] plates). […] 4 ul enzyme solution (or assay buffer for the enzyme blank) was added to the appropriate wells in each plate, and then 4 ul/well substrate solution was added to initiate the reaction. The plate was protected from light and incubated at room temperature for 60 min. […] The plate was incubated for 1 h at room temperature, and HTRF (homogenous time resolved fluorescence) signal was measured on a PHERAstar FS plate reader (BMG labtech). Percentage of inhibition was calculated for each concentration and IC50 value was generated from curve fitting with GraphPad Prism software.

Sequence of phosphor-Axl (P30530 26-894): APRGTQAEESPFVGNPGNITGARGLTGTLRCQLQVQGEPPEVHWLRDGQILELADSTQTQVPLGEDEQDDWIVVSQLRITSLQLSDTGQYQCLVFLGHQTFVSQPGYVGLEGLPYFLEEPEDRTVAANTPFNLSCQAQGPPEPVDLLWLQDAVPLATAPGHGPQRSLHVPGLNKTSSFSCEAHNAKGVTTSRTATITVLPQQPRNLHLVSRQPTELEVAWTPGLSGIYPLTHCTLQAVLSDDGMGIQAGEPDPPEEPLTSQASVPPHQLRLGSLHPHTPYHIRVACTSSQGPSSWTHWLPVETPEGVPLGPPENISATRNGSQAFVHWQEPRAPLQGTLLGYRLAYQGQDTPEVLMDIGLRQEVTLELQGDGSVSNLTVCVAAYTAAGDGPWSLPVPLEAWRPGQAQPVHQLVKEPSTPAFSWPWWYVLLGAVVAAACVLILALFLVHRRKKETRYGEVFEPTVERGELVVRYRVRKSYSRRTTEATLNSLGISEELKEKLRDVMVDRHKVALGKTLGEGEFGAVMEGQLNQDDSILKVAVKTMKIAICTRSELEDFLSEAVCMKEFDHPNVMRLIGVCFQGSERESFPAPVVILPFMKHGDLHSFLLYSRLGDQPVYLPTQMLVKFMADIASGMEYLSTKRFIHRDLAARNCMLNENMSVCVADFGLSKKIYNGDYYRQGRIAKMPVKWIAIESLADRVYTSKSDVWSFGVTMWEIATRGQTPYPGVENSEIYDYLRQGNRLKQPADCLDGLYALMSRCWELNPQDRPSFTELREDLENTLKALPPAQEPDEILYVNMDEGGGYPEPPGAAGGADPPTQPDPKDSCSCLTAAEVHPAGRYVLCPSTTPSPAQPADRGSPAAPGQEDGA
Sequence of Tyro3 (Q06418 41-890): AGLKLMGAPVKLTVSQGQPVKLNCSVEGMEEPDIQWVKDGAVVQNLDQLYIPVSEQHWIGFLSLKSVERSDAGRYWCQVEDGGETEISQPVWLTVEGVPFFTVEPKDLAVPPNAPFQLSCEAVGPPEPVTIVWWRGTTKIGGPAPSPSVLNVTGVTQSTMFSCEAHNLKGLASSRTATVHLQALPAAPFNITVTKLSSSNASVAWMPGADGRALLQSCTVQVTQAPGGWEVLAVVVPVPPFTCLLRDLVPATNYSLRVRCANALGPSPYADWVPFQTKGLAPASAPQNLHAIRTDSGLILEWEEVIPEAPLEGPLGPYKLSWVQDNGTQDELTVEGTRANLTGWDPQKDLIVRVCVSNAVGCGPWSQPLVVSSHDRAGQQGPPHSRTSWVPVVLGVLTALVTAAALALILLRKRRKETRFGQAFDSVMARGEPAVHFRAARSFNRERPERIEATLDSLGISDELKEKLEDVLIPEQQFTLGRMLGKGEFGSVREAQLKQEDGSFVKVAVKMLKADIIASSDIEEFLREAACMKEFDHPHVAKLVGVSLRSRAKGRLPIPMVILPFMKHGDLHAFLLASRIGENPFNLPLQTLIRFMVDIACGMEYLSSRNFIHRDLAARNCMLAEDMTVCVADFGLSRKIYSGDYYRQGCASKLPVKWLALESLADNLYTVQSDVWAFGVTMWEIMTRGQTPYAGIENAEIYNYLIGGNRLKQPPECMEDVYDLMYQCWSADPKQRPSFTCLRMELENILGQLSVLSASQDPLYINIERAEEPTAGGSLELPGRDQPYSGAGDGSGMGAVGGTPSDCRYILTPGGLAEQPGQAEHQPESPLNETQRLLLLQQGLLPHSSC
Sequence of c-Mer (Q12866 21-999): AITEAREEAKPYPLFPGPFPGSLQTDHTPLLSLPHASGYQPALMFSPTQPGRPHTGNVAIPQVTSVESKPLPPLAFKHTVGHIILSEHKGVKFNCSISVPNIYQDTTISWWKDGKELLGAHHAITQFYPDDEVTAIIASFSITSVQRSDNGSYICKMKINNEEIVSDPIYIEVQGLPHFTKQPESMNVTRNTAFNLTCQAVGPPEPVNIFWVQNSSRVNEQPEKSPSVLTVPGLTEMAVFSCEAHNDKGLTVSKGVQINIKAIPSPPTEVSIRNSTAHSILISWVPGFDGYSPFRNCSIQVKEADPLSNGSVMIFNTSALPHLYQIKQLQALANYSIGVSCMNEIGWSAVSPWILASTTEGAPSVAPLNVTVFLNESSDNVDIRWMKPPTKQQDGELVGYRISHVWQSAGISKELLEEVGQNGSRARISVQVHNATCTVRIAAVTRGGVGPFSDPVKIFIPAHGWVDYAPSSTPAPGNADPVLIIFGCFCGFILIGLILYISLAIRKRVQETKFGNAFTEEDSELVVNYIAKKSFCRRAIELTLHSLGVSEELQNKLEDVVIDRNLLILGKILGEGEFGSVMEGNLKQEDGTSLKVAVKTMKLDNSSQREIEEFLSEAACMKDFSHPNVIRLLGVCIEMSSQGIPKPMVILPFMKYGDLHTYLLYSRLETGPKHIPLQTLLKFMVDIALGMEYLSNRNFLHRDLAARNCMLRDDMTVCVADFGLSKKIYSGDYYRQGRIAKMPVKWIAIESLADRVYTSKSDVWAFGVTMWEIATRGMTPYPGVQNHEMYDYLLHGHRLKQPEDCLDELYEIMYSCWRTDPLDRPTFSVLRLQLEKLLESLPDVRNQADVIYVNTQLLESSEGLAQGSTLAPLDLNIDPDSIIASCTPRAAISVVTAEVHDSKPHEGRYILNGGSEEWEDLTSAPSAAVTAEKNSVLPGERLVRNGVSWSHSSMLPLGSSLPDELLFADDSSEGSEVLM

Row | IC50 (Tyro3) | IC50 (phosphor-Axl) | IC50 (c-Mer) | Structure (SMILES)
1 | 10 to 100 nM | ≤ 5 nM | ≤ 5 nM | Nc1ncnn2c(C3CCOCC3)cc(-c3ccc(NC(=O)c4cccn(-c5ccc(F)cc5)c4=O)cc3)c12 [Example 14, N-{4-[4-Amino-7-(tetrahydro-2H-pyran-4-yl)pyrrolo[2,1-f][1,2,4]triazin-5-yl]phenyl}-1-(4-fluorophenyl)-2-oxo-1,2-dihydropyridine-3-carboxamide]
2 | 10 to 100 nM | ≤ 5 nM | ≤ 5 nM | Nc1ncnn2c(C3CCOCC3)cc(-c3ccc(NC(=O)c4cccn(-c5ccc(F)cc5)c4=O)cc3F)c12 [Example 16, N-{4-[4-Amino-7-(tetrahydro-2H-pyran-4-yl)pyrrolo[2,1-f][1,2,4]triazin-5-yl]-3-fluorophenyl}-1-(4-fluorophenyl)-2-oxo-1,2-dihydropyridine-3-carboxamide]
3 | ≤ 5 nM | ≤ 5 nM | ≤ 5 nM | Nc1ncnn2c1c(-c1ccc(NC(=O)c3cccn(-c4ccc(F)cc4)c3=O)cc1F)cc2[C@H]1CC[C@@H](O)CC1 [Example 19, N-{4-[4-Amino-7-(cis-4-hydroxycyclohexyl)pyrrolo[2,1-f][1,2,4]triazin-5-yl]-3-fluorophenyl}-1-(4-fluorophenyl)-2-oxo-1,2-dihydropyridine-3-carboxamide]
4 | 10 to 100 nM | ≤ 5 nM | ≤ 5 nM | CN1CCC(c2cc(-c3ccc(NC(=O)c4cccn(-c5ccccc5)c4=O)cc3F)c3c(N)ncnn23)CC1 [Example 22, N-{4-[4-Amino-7-(1-methylpiperidin-4-yl)pyrrolo[2,1-f][1,2,4]triazin-5-yl]-3-fluorophenyl}-2-oxo-1-phenyl-1,2-dihydropyridine-3-carboxamide]
5 | 10 to 100 nM | ≤ 5 nM | ≤ 5 nM | CN1CCC(c2cc(-c3ccc(NC(=O)c4cccn(-c5ccc(F)cc5)c4=O)cc3F)c3c(N)ncnn23)CC1 [Example 23, N-{4-[4-Amino-7-(1-methylpiperidin-4-yl)pyrrolo[2,1-f][1,2,4]triazin-5-yl]-3-fluorophenyl}-1-(4-fluorophenyl)-2-oxo-1,2-dihydropyridine-3-carboxamide]
6 | 10 to 100 nM | ≤ 5 nM | ≤ 5 nM | CC(=O)N1CCC(c2cc(-c3ccc(NC(=O)c4cccn(-c5ccccc5)c4=O)cc3)c3c(N)ncnn23)CC1 [Example 24, N-{4-[7-(1-Acetylpiperidin-4-yl)-4-aminopyrrolo[2,1-f][1,2,4]triazin-5-yl]phenyl}-2-oxo-1-phenyl-1,2-dihydropyridine-3-carboxamide]
7 | 10 to 100 nM | ≤ 5 nM | ≤ 5 nM | CC(=O)N1CCC(c2cc(-c3ccc(NC(=O)c4cccn(-c5ccc(F)cc5)c4=O)cc3)c3c(N)ncnn23)CC1 [Example 25, N-{4-[7-(1-Acetylpiperidin-4-yl)-4-aminopyrrolo[2,1-f][1,2,4]triazin-5-yl]phenyl}-1-(4-fluorophenyl)-2-oxo-1,2-dihydropyridine-3-carboxamide]
8 | 10 to 100 nM | ≤ 5 nM | ≤ 5 nM | CC(=O)N1CCC(c2cc(-c3ccc(NC(=O)c4cccn(-c5ccccc5)c4=O)cc3F)c3c(N)ncnn23)CC1 [Example 26, N-{4-[7-(1-Acetylpiperidin-4-yl)-4-aminopyrrolo[2,1-f][1,2,4]triazin-5-yl]-3-fluorophenyl}-2-oxo-1-phenyl-1,2-dihydropyridine-3-carboxamide]
9 | 10 to 100 nM | ≤ 5 nM | ≤ 5 nM | CC(=O)N1CCC(c2cc(-c3ccc(NC(=O)c4cccn(-c5ccc(F)cc5)c4=O)cc3F)c3c(N)ncnn23)CC1 [Example 27, N-{4-[7-(1-Acetylpiperidin-4-yl)-4-aminopyrrolo[2,1-f][1,2,4]triazin-5-yl]-3-fluorophenyl}-1-(4-fluorophenyl)-2-oxo-1,2-dihydropyridine-3-carboxamide]
10 | > 100 nM | ≤ 5 nM | ≤ 5 nM | N#C[C@H]1CC[C@@H](c2cc(-c3ccc(NC(=O)c4cccn(-c5ccccc5)c4=O)cc3)c3c(N)ncnn32)CC1 [Example 28, N-{4-[4-Amino-7-(cis-4-cyanocyclohexyl)pyrrolo[2,1-f][1,2,4]triazin-5-yl]phenyl}-2-oxo-1-phenyl-1,2-dihydropyridine-3-carboxamide]
11 | 10 to 100 nM | ≤ 5 nM | ≤ 5 nM | N#C[C@H]1CC[C@@H](c2cc(-c3ccc(NC(=O)c4cccn(-c5ccc(F)cc5)c4=O)cc3)c3c(N)ncnn32)CC1 [Example 29, N-{4-[4-Amino-7-(cis-4-cyanocyclohexyl)pyrrolo[2,1-f][1,2,4]triazin-5-yl]phenyl}-1-(4-fluorophenyl)-2-oxo-1,2-dihydropyridine-3-carboxamide]
12 | 10 to 100 nM | ≤ 5 nM | ≤ 5 nM | N#C[C@H]1CC[C@@H](c2cc(-c3ccc(NC(=O)c4cccn(-c5ccccc5)c4=O)cc3F)c3c(N)ncnn32)CC1 [Example 30, N-{4-[4-Amino-7-(cis-4-cyanocyclohexyl)pyrrolo[2,1-f][1,2,4]triazin-5-yl]-3-fluorophenyl}-2-oxo-1-phenyl-1,2-dihydropyridine-3-carboxamide]
13 | 10 to 100 nM | ≤ 5 nM | ≤ 5 nM | Nc1ncnn2c(C3CCNCC3)cc(-c3ccc(NC(=O)c4cccn(-c5ccccc5)c4=O)cc3)c12 [Example 32, N-[4-(4-Amino-7-piperidin-4-ylpyrrolo[2,1-f][1,2,4]triazin-5-yl)phenyl]-2-oxo-1-phenyl-1,2-dihydropyridine-3-carboxamide]
14 | 10 to 100 nM | ≤ 5 nM | ≤ 5 nM | Nc1ncnn2c(C3CCNCC3)cc(-c3ccc(NC(=O)c4cccn(-c5ccc(F)cc5)c4=O)cc3)c12 [Example 33, N-[4-(4-Amino-7-piperidin-4-ylpyrrolo[2,1-f][1,2,4]triazin-5-yl)phenyl]-1-(4-fluorophenyl)-2-oxo-1,2-dihydropyridine-3-carboxamide]
15 | 10 to 100 nM | ≤ 5 nM | ≤ 5 nM | Nc1ncnn2c(C3CCNCC3)cc(-c3ccc(NC(=O)c4cccn(-c5ccccc5)c4=O)cc3F)c12 [Example 34, N-[4-(4-Amino-7-piperidin-4-ylpyrrolo[2,1-f][1,2,4]triazin-5-yl)-3-fluorophenyl]-2-oxo-1-phenyl-1,2-dihydropyridine-3-carboxamide]
16 | 5 to 10 nM | ≤ 5 nM | ≤ 5 nM | Nc1ncnn2c(C3CCNCC3)cc(-c3ccc(NC(=O)c4cccn(-c5ccc(F)cc5)c4=O)cc3F)c12 [Example 35, N-[4-(4-Amino-7-piperidin-4-ylpyrrolo[2,1-f][1,2,4]triazin-5-yl)-3-fluorophenyl]-1-(4-fluorophenyl)-2-oxo-1,2-dihydropyridine-3-carboxamide]
17 | 10 to 100 nM | ≤ 5 nM | ≤ 5 nM | COC(=O)N1CCC(c2cc(-c3ccc(NC(=O)c4cccn(-c5ccc(F)cc5)c4=O)cc3)c3c(N)ncnn23)CC1 [Example 37, Methyl 4-{4-amino-5-[4-({[1-(4-fluorophenyl)-2-oxo-1,2-dihydropyridin-3-yl]carbonyl}amino)phenyl]pyrrolo[2,1-f][1,2,4]triazin-7-yl}piperidine-1-carboxylate]
18 | 10 to 100 nM | ≤ 5 nM | ≤ 5 nM | COC(=O)N1CCC(c2cc(-c3ccc(NC(=O)c4cccn(-c5ccccc5)c4=O)cc3F)c3c(N)ncnn23)CC1 [Example 38, Methyl 4-[4-amino-5-(2-fluoro-4-{[(2-oxo-1-phenyl-1,2-dihydropyridin-3-yl)carbonyl]amino}phenyl)pyrrolo[2,1-f][1,2,4]triazin-7-yl]piperidine-1-carboxylate]
19 | 10 to 100 nM | ≤ 5 nM | ≤ 5 nM | COC(=O)N1CCC(c2cc(-c3ccc(NC(=O)c4cccn(-c5ccc(F)cc5)c4=O)cc3F)c3c(N)ncnn23)CC1 [Example 39, Methyl 4-{4-amino-5-[2-fluoro-4-({[1-(4-fluorophenyl)-2-oxo-1,2-dihydropyridin-3-yl]carbonyl}amino)phenyl]pyrrolo[2,1-f][1,2,4]triazin-7-yl}piperidine-1-carboxylate]
20 | 10 to 100 nM | ≤ 5 nM | ≤ 5 nM | CS(=O)(=O)N1CCC(c2cc(-c3ccc(NC(=O)c4cccn(-c5ccc(F)cc5)c4=O)cc3)c3c(N)ncnn23)CC1 [Example 41, N-(4-{4-Amino-7-[1-(methylsulfonyl)piperidin-4-yl]pyrrolo[2,1-f][1,2,4]triazin-5-yl}phenyl)-1-(4-fluorophenyl)-2-oxo-1,2-dihydropyridine-3-carboxamide]
21 | 10 to 100 nM | ≤ 5 nM | ≤ 5 nM | CS(=O)(=O)N1CCC(c2cc(-c3ccc(NC(=O)c4cccn(-c5ccccc5)c4=O)cc3F)c3c(N)ncnn23)CC1 [Example 42]
22 | 10 to 100 nM | ≤ 5 nM | ≤ 5 nM | CS(=O)(=O)N1CCC(c2cc(-c3ccc(NC(=O)c4cccn(-c5ccc(F)cc5)c4=O)cc3F)c3c(N)ncnn23)CC1 [Example 43]

Row | Structure (SMILES) | IC50 (Tyro3) | IC50 (phosphor-Axl) | IC50 (c-Mer)
23 | CCc1cc(-c2ccc(NC(=O)c3cccn(Cc4ccccc4)c3=O)cc2)c2c(N)ncnn12 [Example 5, N-[4-(4-Amino-7-ethylpyrrolo[2,1-f][1,2,4]triazin-5-yl)phenyl]-1-benzyl-2-oxo-1,2-dihydropyridine-3-carboxamide] | > 100 nM | > 100 nM | > 100 nM

Reference: patent publication US9981975B2, “Pyrrolotriazine compounds as tam inhibitors” (Incyte Corporation, priority 2016, dated 2018)
